The values below come from patent US7709460B2, “Method for treating or preventing a functional vitamin B12 deficiency in an individual and medical compositions for use in said method” (Cobalz Limited, priority 2001, dated 2010).

Series [1] deals with cob(III)alamin reductase (CR). To be noted: literature study (reference 15); cited from earlier work.
Series [2] has as its system patients with a functional Vitamin B12 deficiency and suffering from a neuropsychiatric abnormality. The series is described as follows: Mini-Mental State Examination (MMSE) in treated patients. The class given is in vivo, human. How it is done: (§1) Cognitive scores (Mini Metal State Examination (MMSE) and the cognitive component of the Alzheimer Disease Assessment Scale (ADAS-Cog)) were recorded for cases and controls (16, 17).
(§2) The effect of generating a cobalt-sulphur bond by the co-administration of hydroxocobalamin and a glutathione precursor (N-acetyl cysteine or α-lipoic acid) on the symptoms of seven patients suffering from neuropsychiatric abnormalities was investigated.

For series [3] the test system is unchanged. The series is described as follows: cognitive component of the Alzheimer Disease Assessment Scale (ADAS-Cog) in treated patients. Type of series: in vivo, human. The protocol: as §1, §2
Series [4] shares this test system. Briefly: clinical observation of symptoms and behaviour in case reports (Example 2). The class given is in vivo, human.
Text: as §2

Series [5] in a line: side effects reported by patients. Type of series: in vivo, human.
Series [6] is described as follows: serum homocysteine level under treatment. The class given is in vivo, human. To be noted: Patient 4; monthly hydroxocobalamin plus oral folate, 1999; 23.7 μmol/l before treatment.
The mark [7] stands for this setting: Patient 1, N-acetyl cysteine 600 mg daily added to monthly hydroxocobalamin, two weeks.
The mark [8] stands for this setting: Patient 4, N-acetylcysteine 600 mg daily added to B-vitamin supplementation.
[9] abbreviates: Patient 7, 600 mg NAC daily added to hydroxocobalamin and folate, one month.
The mark [10] stands for this setting: Patient 4, monthly hydroxocobalamin plus oral folate, 1999.

As for `C/C1=C2/[N-][C@H]([C@H](CC(N)=O)[C@@]2(C)CCC(=O)NC[C@@H](C)OP(=O)([O-])O[C@H]2[C@@H](O)[C@@H](n3cnc4cc(C)c(C)cc43)O[C@@H]2CO)[C@]2(C)N=C(/C(C)=C3N=C(/C=C4N=C1[C@@H](CCC(N)=O)C\4(C)C)[C@@H](CCC(N)=O)[C@]\3(C)CC(N)=O)[C@@H](CCC(N)=O)[C@]2(C)CC(N)=O.[CH2-][C@H]1O[C@@H](n2cnc3c(N)ncnc32)[C@H](O)[C@@H]1O.[Co]` [Ado-Cbl, adenosyl cobalamin], the “use as substrate / reductase activity” value in series [1] is given as “Little or no reductase activity”.
Turning to `CC(=O)N[C@@H](CS)C(=O)O` [N-acetyl cysteine], the MMSE score is on record as 21/30 in series [2] (setting [7]) and 25/30 in series [2] (Patient 2, oral N-acetylcysteine 600 mg added to hydroxocobalamin, one month). For the same molecule, the cognitive score result in series [2] (setting [8]) is on record as “no improvement in their cognitive score”. The “improvement on the ADAS-Cog score” value in series [3] (Patient 1, N-acetyl cysteine 600 mg daily added to hydroxocobalamin, two weeks vs before) is listed as “eight”. The ADAS-Cog score in series [3] (setting [7]) is listed as 20/70. Besides, the “further change on the ADAS-Cog score” value in series [3] (Patient 1, N-acetyl cysteine added to hydroxocobalamin, four-week assessment) is reported as “gained an additional point”. In addition, in series [3] (setting [9]), the “points gained on ADAS-Cog score” value was found to be 6 points. Also, the “clinical response (husband's report)” value in series [4] (Patient 1, N-acetyl cysteine 600 mg daily added to hydroxocobalamin, two weeks) is reported as “some noticeable improvement in their memory”. Besides, in series [4] (Patient 3, severe dementia, oral N-acetyl cysteine 600 mg daily added to hydroxocobalamin), the “clinical response (family and nursing staff)” value was “significant improvement in their condition”. The “clinical response (behaviour)” value in series [4] (setting [8]) is listed as “their behaviour was considerably improved”. In addition, the “frequency of vitamin B12 injections needed” value in series [4] (Patient 5, N-Acetylcysteine 400 mg daily, after three months, three times weekly before) is reported as “once weekly”. Further, the clinical response entry in series [4] (Patient 5, oral N-Acetylcysteine 400 mg daily added to vitamin B12 regime, after a month) is “more lively and with less headaches”; in series [4] (Patient 6, NAC 100 mg daily added to 1 mg oral cobalamin and 5 mg folic acid daily, 4 months), “definitely improved”. Besides, the “clinical response (staff comment)” value in series [4] (setting [9]) was “less agitated, and more contented”. Also, the side effects result in series [5] (Patient 5, oral N-Acetylcysteine 400 mg daily) was “some gastroenteric side effects”; in series [5] (Patient 6, NAC, limited them to 100 mg daily), “gastro intestinal side effects”.
Turning to `Nc1nc2ncc(CNc3ccc(C(=O)N[C@@H](CCC(=O)O)C(=O)O)cc3)nc2c(=O)[nH]1` [folic acid], the clinical response result in series [4] (Patient 2, age-associated memory impairment, folic acid supplements for some months) was “no significant change in their symptoms”.
For `C/C1=C2/[N-][C@H]([C@H](CC(N)=O)[C@@]2(C)CCC(=O)NC[C@@H](C)OP(=O)([O-])O[C@H]2[C@@H](O)[C@@H](n3cnc4cc(C)c(C)cc43)O[C@@H]2CO)[C@]2(C)N=C(/C(C)=C3N=C(/C=C4N=C1[C@@H](CCC(N)=O)C\4(C)C)[C@@H](CCC(N)=O)[C@]\3(C)CC(N)=O)[C@@H](CCC(N)=O)[C@]2(C)CC(N)=O.[Co+3].[OH-]` [hydroxocobalamin], the MMSE score was 18/30 in series [2] (Patient 1, regular monthly hydroxocobalamin injections alone, February 2001, before N-acetyl cysteine); 21/30 in series [2] (Patient 2, monthly hydroxocobalamin, after 6 months); 13/30 in series [2] (Patient 3, on monthly hydroxocobalamin, cognitive review in 1997); 5/30 in series [2] (setting [10]). In addition, the ADAS-Cog score in series [3] (Patient 1, regular monthly hydroxocobalamin alone, February 2001) was 28/70; in series [3] (setting [10]), 70; in series [3] (Patient 7, weekly hydroxocobalamin with oral folate, before NAC), 68. For the same molecule, the clinical response entry in series [4] (Patient 1, monthly injections of hydroxocobalamin, from 1994) is “neuropsychiatric symptoms were initially much improved”; in series [4] (Patient 3, probable Alzheimer-type dementia, monthly hydroxocobalamin, ensuing 2 years), “their mental condition continued to deteriorate”; in series [4] (Patient 4, probable Alzheimer-type dementia, monthly hydroxocobalamin plus folic acid 5 mg daily), “their cognitive function continued to slowly deteriorate”. The “clinical response (husband's report)” value in series [4] (Patient 2, monthly injections of hydroxocobalamin) is reported as “no significant change in their condition”. Besides, in series [4] (Patient 7, vascular dementia, weekly hydroxocobalamin injections with oral folate supplement), the cognitive function entry was “no significant improvement in their cognitive function”. Besides, the serum homocysteine level in series [6] stood at 5.7 µmol/L.
`C/C1=C2/[N-][C@H]([C@H](CC(N)=O)[C@@]2(C)CCC(=O)NC[C@H](C)OP(=O)([O-])O[C@H]2[C@@H](O)[C@@H](n3cnc4cc(C)c(C)cc43)O[C@@H]2CO)[C@]2(C)N=C(/C(C)=C3N=C(/C=C4N=C1[C@@H](CCC(N)=O)C\4(C)C)[C@@H](CCC(N)=O)[C@]\3(C)CC(N)=O)[C@@H](CCC(N)=O)[C@]2(C)CC(N)=O.[CH3-].[Co+3]` [methylcobalamin]: the clinical response result in series [4] (Patient 5, Chronic Fatigue Syndrome, subcutaneous methylcobalamin twice weekly) is “clear improvement after only their third injection”. Also, the “clinical condition on withdrawal of injections” value in series [4] (Patient 5, methylcobalamin injections withdrawn in 1994) was “marked deterioration in relation to the withdrawal of these injections”. For the same molecule, the “use as substrate / reductase activity” value in series [1] is listed as “Little or no reductase activity”.
Consider `O=C(O)CCCCC1CCSS1` (stereo not drawn) [α-lipoic acid], for which the clinical response entry in series [4] (Patient 4, changed from N-acetylcysteine to α-lipoic acid 50 mg twice daily, with B vitamins) is “clinical improvement was maintained one year later”.
On to cyanocobalamin [CN-Cbl], for which, in series [1], the “use as substrate / reductase activity” value is on record as “Little or no reductase activity”.
Regarding vitamin B12, the clinical response entry in series [4] (Patient 6, presumed multiple sclerosis, regular injections of vitamin B12) is “very apparent improvement in their symptoms”.
